Measured values taken from patent publication US8586611B2 (priority 2005, dated 2013).

Legend:
Format in all cases: in vivo
Plasmopara viticola = assay: Test B: grape downy mildew, spray 24 h after inoculation (disease rating, 100 = 100% disease control)
How it was run: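 This is a curative spray test, applied 24 h after inoculation. Compounds in 50/50 acetone–water with 250 ppm Trem 014 surfactant were sprayed to run-off on P. viticola-infected seedlings, with 200 ppm equating to 500 g/ha. Plants were kept 5 days in a 20 °C growth chamber, then 24 h humid, and scored 0–100 for disease control relative to controls.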

Phytophthora infestans [1] = assay: whole plant or invertebrate; details: tomato late blight
Phytophthora infestans [2] = assay: whole plant or invertebrate; details: tomato late blight; remark: listed apart in the source
[3] = tested on: Erysiphe graminis f. sp. tritici; assay: Test E: wheat powdery mildew, spray the day before inoculation (disease rating, 100 = 100% disease control)
How it was run: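 Protective test: spores of E. graminis f. sp. tritici dusted on wheat seedlings one day after run-off spraying of test suspension (acetone/water with 250 ppm surfactant; 200 ppm = 500 g/ha). Ratings after 7 days in growth chamber at 20° C, 100 = full control, 0 = none, relative to controls.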

[4] = spray 24 h after inoculation, tested at 10 ppm
[5] = spray 17 h after inoculation, tested at 10 ppm
[6] = spray the day before inoculation, tested at 10 ppm
[7] = sprayed 24 h after inoculation, unmarked compounds (no asterisk, not 40 or 10 ppm)
[8] = sprayed 17 h after inoculation, unmarked compounds (no asterisk, not 40 or 10 ppm)
[9] = sprayed the day before inoculation, unmarked compounds (no asterisk, not 40 or 10 ppm)
[10] = sprayed the day before inoculation, 7 days at 20° C., unmarked compounds (no asterisk, not 40 or 10 ppm)
[11] = spray 24 h after inoculation, compounds without asterisk (not 40 or 10 ppm)
[12] = spray 17 h after inoculation, compounds without asterisk (not 40 or 10 ppm)
[13] = spray the day before inoculation, compounds without asterisk (not 40 or 10 ppm)
[14] = spray the day before inoculation, tested at 40 ppm

SMILES | Test B disease rating (100 = 100% disease control, 0 = no disease control) (Plasmopara viticola; [7]) | Test D disease rating (100 = 100% disease control, 0 = no disease control) (Phytophthora infestans [1]; [8]) | Test C disease rating (100 = 100% disease control, 0 = no disease control) (Phytophthora infestans [2]; [9]) | Test E disease rating (100 = 100% disease control, 0 = no disease control) [3, 10] | Test B disease rating (100 = 100% disease control, 0 = no disease control) (Plasmopara viticola; [11]) [%] | Test D disease rating (100 = 100% disease control, 0 = no disease control) (Phytophthora infestans [1]; [12]) [%] | Test C disease rating (100 = 100% disease control, 0 = no disease control) (Phytophthora infestans [2]; [13]) [%] | Test E disease rating (100 = 100% disease control, 0 = no disease control) [3, 13] [%] | further results
Cc1cc(C(F)(F)F)nn1CC(=O)N1CCC(c2nc(C(=O)N(C)C3CCc4cc(Cl)ccc43)cs2)CC1 (stereo not shown) [compound 221] |  |  |  |  |  |  |  |  | Test B disease rating (100 = 100% disease control, 0 = no disease control) (Plasmopara viticola; [4]): 77%; Test D disease rating (100 = 100% disease control, 0 = no disease control) (Phytophthora infestans [1]; [5]): 98%; Test C disease rating (100 = 100% disease control, 0 = no disease control) (Phytophthora infestans [2]; [6]): 99%; Test E disease rating (100 = 100% disease control, 0 = no disease control) [3, 6]: 0%
Cc1cc(C(F)(F)F)nn1CC(=O)N1CCC(c2nc(C(=O)N(C)C3CCCC4CCCCC43)cs2)CC1 (mixture of isomers) [compound 254] | 95 | 99 | 99 | 0 |  |  |  |  | 
Cc1cc(C(F)(F)F)nn1CC(=O)N1CCC(c2nc(C(=O)N3Cc4ccccc4C3C)cs2)CC1 (stereo not shown) [compound 298] |  |  |  |  |  |  |  |  | Test B disease rating (100 = 100% disease control, 0 = no disease control) (Plasmopara viticola; sprayed 24 h after inoculation, tested at 10 ppm (**)): 57; Test D disease rating (100 = 100% disease control, 0 = no disease control) (Phytophthora infestans [1]; sprayed 17 h after inoculation, tested at 10 ppm (**)): 0; Test C disease rating (100 = 100% disease control, 0 = no disease control) (Phytophthora infestans [2]; sprayed the day before inoculation, tested at 10 ppm (**)): 80; Test E disease rating (100 = 100% disease control, 0 = no disease control) ([3]; sprayed the day before inoculation, 7 days at 20° C., tested at 10 ppm (**)): 0
CC[C@H](c1ccccc1)N(C)C(=O)c1csc(C2CCN(C(=O)Cc3cccc(C)c3)CC2)n1 [compound 116] |  |  |  |  | 100 | 87 | 49 | 0 | 
Cc1cc(C(F)(F)F)nn1CC(=O)N1CCC(c2nc(C(=O)N(C)C3CCCc4cc(Cl)ccc43)cs2)CC1 (stereo not shown) [compound 201] |  |  |  |  |  |  |  |  | Test B disease rating (100 = 100% disease control, 0 = no disease control) (Plasmopara viticola; spray 24 h after inoculation, tested at 40 ppm): 98%; Test D disease rating (100 = 100% disease control, 0 = no disease control) (Phytophthora infestans [1]; spray 17 h after inoculation, tested at 40 ppm): 99%; Test C disease rating (100 = 100% disease control, 0 = no disease control) (Phytophthora infestans [2]; [14]): 100%; Test E disease rating (100 = 100% disease control, 0 = no disease control) [3, 14]: 0%
Cc1cc(C(F)(F)F)nn1CC(=O)N1CCC(c2nc(C(=O)N3CC=C(c4ccccc4)CC3)cs2)CC1 [compound 311] | 31 | 0 | 83 | 28 |  |  |  |  | 
Cc1cc(C(F)(F)F)nn1CC(=O)N1CCC(c2nc(C(=O)N(C)Cc3ccccc3)cs2)CC1 [compound 248] |  |  |  |  | 88 | 80 | 100 | 53 | 
Cc1cc(C(F)(F)F)nn1CC(=O)N1CCC(c2nc(C(=O)N3CCC(C)(C)CC3)cs2)CC1 [compound 309] | 96 | 83 | 100 | 0 |  |  |  |  | 
Cc1cc(C(F)(F)F)nn1CC(=O)N1CCC(c2nc(C(=O)N(C)C3CCCCc4ccccc43)cs2)CC1 (stereo not shown) [compound 181] |  |  |  |  |  |  |  |  | Test B disease rating (100 = 100% disease control, 0 = no disease control) (Plasmopara viticola; [4]): 73%; Test D disease rating (100 = 100% disease control, 0 = no disease control) (Phytophthora infestans [1]; [5]): 98%; Test C disease rating (100 = 100% disease control, 0 = no disease control) (Phytophthora infestans [2]; [6]): 100%; Test E disease rating (100 = 100% disease control, 0 = no disease control) [3, 6]: 0%
C[C@H](c1ccccc1)N(C)C(=O)c1csc(C2CCN(C(=O)Cc3cccnc3)CC2)n1 [compound 83] |  |  |  |  | 14 | 0 | 31 | 0 | 
